Experimental findings from patent publication US7560466B2, “Methods of treating or preventing autoimmune diseases with 2,4-pyrimidinediamine compounds” (Rigel Pharmaceuticals, Inc., priority 2003, dated 2009) are described below.

Read-outs that look alike come from different tables or passages of the source.

One data set concerns the target T1, Syk kinase (Homo sapiens, UniProt P43405).
T1 construct: purchased Upstate, Lake Placid N.Y
The data set is described as follows: Syk kinase biochemical fluorescence polarization assay. The settings on record: isolated Syk kinase, read-out: fp_syk, 11pt. As for the experimental part: Many of the 2,4-pyrimidinediamine compounds were tested for the ability to inhibit Syk kinase catalyzed phosphorylation of a peptide substrate in a biochemical fluorescenced polarization assay with isolated Syk kinase. In this experiment, Compounds were diluted to 1% DMSO in kinase buffer (20 mM HEPES, pH 7.4, 5 mM MgCl2, 2 mM MnCl2, 1 mM DTT, 0.1 mg/mL acetylated Bovine Gamma Globulin). Compound in 1% DMSO (0.2% DMSO final) was mixed with ATP/substrate solution at room temperature. Syk kinase (Upstate, Lake Placid N.Y.) was added to a final reaction volume of 20 uL, and the reaction was incubated for 30 minutes at room temperature. […] EDTA (10 mM final)/anti-phosphotyrosine antibody (1× final)/fluorescent phosphopeptide tracer (0.5× final) was added in FP Dilution Buffer to stop the reaction for a total volume of 40 uL according to manufacturer's instructions (PanVera Corporation) The plate was incubated for 30 minutes in the dark at room temperature. Plates were read on a Polarion fluorescence polarization plate reader (Tecan). Data were converted to amount of phosphopeptide present using a calibration curve generated by competition with the phosphopeptide competitor provided in the Tyrosine Kinase Assay Kit, Green (PanVera Corporation).
In Tabe 1, all reported values are IC50s (in μM).

Data set [1] can be described thus: Plasma concentration in RPA reaction study (satellite / exposure). The format is in vivo, mouse. The conditions noted are these: pretreatment 0.5 hrs; for concentration at 4.5 h: C57BL/6, mouse, plasma, read-out: Exposure = Pretreatment Time + 4 hours Plasma Concentration ± SEM. As for the experimental part: Pretreatment time, in which the test compounds are administered prior to Ab/Ag challenge, depends on the pharmacokinetic (PK) properties of each individual compound. Four hours after induction of Arthus reaction, mice are euthanized, and tissues are harvested for assessment of edema.
All compounds tested were administered by the oral route.

In data set [2] the test system is cultured human mast cells (CHMC), IgE-induced degranulation. The data set is described as follows: CHMC low cell density IgE activation: tryptase assay. The format is cell-based. The conditions noted are these: Homo sapiens, Mast cell, low cell density CHMC. A digest of the protocol: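 Cord-blood CD34+-derived mucosal mast cells (SCF/IL-6 medium), 1000–1500 cells/well, preincubated with compound 1 h at 37°C, then anti-IgE stimulated 30 min at 37°C.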

Data set [3] has as its system cultured human mast cells (CHMC), ionomycin-induced degranulation. The data set is described as follows: CHMC low cell density ionomycin activation: tryptase assay. In kind it is cell-based. The settings on record: Homo sapiens, Mast cell, low cell density CHMC, ionomycin activation (2 μM final), 3pt, read-out: LD Tryptase, CHMC, Iono, 3pt.

Turning to `CC1(C)Oc2ccc(Nc3nc(Nc4ccc5nc(C(F)(F)F)[nH]c5c4)ncc3F)cc2NC1=O` [Compound 802, N4-(2,2-Dimethyl-3-oxo-4H-benz[1,4]oxazin-6-yl)-5-fluoro-N2-(2-trifluoromethyl-1H-benzimidazol-5-yl)-2,4-pyrimidinediamine], on Syk kinase (11pt), the IC50 was under 10 µM.

In the case of `Cn1nc(N)c2cc(Nc3ncc(F)c(Nc4ccc5c(c4)NC(=O)C(C)(C)O5)n3)ccc21` [Compound 806, N2-(3-A mino-1-methylindazol-5-yl)-N4-(2,2-dimethyl-3-oxo-4H-benz[1,4]oxazin-6-yl)-5-fluoro-2,4-pyrimidinediamine], the IC50 on Syk kinase (11pt) was under 10 µM.

As for `Cc1nc2ccc(Nc3ncc(F)c(Nc4ccc5c(c4)NC(=O)C(C)(C)O5)n3)cc2[nH]1` [Compound 810, N4-(2,2-Dimethyl-3-oxo-4H-benz[1,4]oxazin-6-yl)-5-fluoro-N2-(2-methyl-3H-benzimidazol-5-yl)-2,4-pyrimidinediamine], the IC50 at Syk kinase (11pt) was under 10 µM.

For the molecule `Cc1nc2ccc(Nc3ncc(F)c(Nc4ccc5c(c4)NC(=O)[C@H](C)O5)n3)cc2[nH]1` [Compound 811, (S)-5-Fluoro-N2-(2-methyl-3H-benzimidazol-5-yl)-N4-(2-methyl-3-oxo-2H,4H-benz[1,4]oxazin-6-yl)-2,4-pyrimidinediamine], at Syk kinase (11pt), the IC50 was under 10 µM.

Regarding `CC(=O)NCCCn1ncc2cc(Nc3ncc(F)c(Nc4ccc5c(n4)NC(=O)C(C)(C)O5)n3)ccc21` [Compound 822, N2-[1-[3-(N-Acetylamino)propyl]indazol-5-yl]-N4-(2,2-dimethyl-3-oxo-4H-5-pyrid[1,4]oxazin-6-yl)-5-fluoro-2,4-pyrimidinediamine], on Syk kinase (11pt), the IC50 was under 10 µM.

Take `Cc1nc2ccc(Nc3ncc(F)c(Nc4ccc5c(n4)NC(=O)C(C)(C)O5)n3)cc2[nH]1` [Compound 845, N4-(2,2-Dimethyl-3-oxo-4H-5-pyrid[1,4]oxazin-6-yl)-5-fluoro-N2-(2-methyl-3H-benzimidazol-5-yl)-2,4-pyrimidinediamine]: the IC50 at Syk kinase (11pt) is under 10 µM.

For `CC1(C)Oc2ccc(Nc3nc(Nc4ccc5[nH]c(C(F)(F)F)nc5c4)ncc3F)nc2NC1=O` [Compound 846, N4-(2,2-Dimethyl-3-oxo-4H-5-pyrid[1,4]oxazin-6-yl)-5-fluoro-N2-(2-trifluoromethyl-1H-benzimidazol-5-yl)-2,4-pyrimidinediamine], the IC50 at Syk kinase (11pt) is under 10 µM.

Regarding `Cc1nc2cc(Nc3ncc(F)c(Nc4ccc5c(c4)NC(=O)[C@H](C)O5)n3)ccc2n1C` [Compound 897], the IC50 on Syk kinase (11pt) was under 10 µM.

Regarding `Cc1nc2cc(Nc3ncc(F)c(Nc4ccc5c(n4)NC(=O)C(C)(C)O5)n3)ccc2n1C` [Compound 898, N2-(1,2-Dimethylbenzimidazol-5-yl)-N4-(2,2-dimethyl-3-oxo-4H-5-pyrid[1,4]oxazin-6-yl)-5-Fluoro-2,4-pyrimidinediamine], the IC50 on Syk kinase (11pt) was under 10 µM.

As to `Cc1nc2cc(Nc3ncc(F)c(Nc4ccc5c(c4)NC(=O)C(C)(C)O5)n3)ccc2n1CCO` [Compound 901], the IC50 at Syk kinase (11pt) is under 10 µM.

As to `Cc1nc2cc(Nc3ncc(F)c(Nc4ccc5c(c4)NC(=O)[C@H](C)O5)n3)ccc2n1CCO` [Compound 902], the IC50 at Syk kinase (11pt) was under 10 µM.

`Cc1nc2cc(Nc3ncc(F)c(Nc4ccc5c(n4)NC(=O)C(C)(C)O5)n3)ccc2n1CCO` [Compound 903, N4-(2,2-Dimethyl-3-oxo-4H-5-pyrid[1,4]oxazin-6-yl)-5-fluoro-N2-[1-(2-hydroxyethyl)-2-methylbenzimidazol-5-yl)-2,4-pyrimidinediamine]: the IC50 at Syk kinase (11pt) was under 10 µM.

On to `Cc1nc2ccc(Nc3ncc(F)c(Nc4ccc5c(c4)NC(=O)C(C)S5(=O)=O)n3)cc2[nH]1` (stereo not drawn) [Compound 909], for which the IC50 on Syk kinase (11pt) was under 10 µM.

Turning to `CC1C(=O)Nc2cc(Nc3nc(Nc4ccc5[nH]c(C(F)(F)F)nc5c4)ncc3F)ccc2S1(=O)=O` (stereo not drawn) [Compound 910, 5-Fluoro-N4-(2-methyl-1,1,3-trioxo-2H,4H-benzo[1,4]thiazin-6-yl)-N2-(2-trifluoromethyl-1H-benzimidazol-5-yl)-2,4-pyrimidinediamine], the IC50 at Syk kinase (11pt) is under 10 µM.

For `CC1(C)Oc2ccc(Nc3nc(Nc4ccc5[nH]c(CN6CCOCC6)nc5c4)ncc3F)cc2NC1=O` [Compound 961, N4-(2,2-Dimethyl-3-oxo-4H-benz[1,4]oxazin-6-yl)-5-fluoro-N2-[2-(4-morpholinomethyl)-1H-benzimidazol-5-yl]-2,4-pyrimidinediamine], the IC50 at Syk kinase (11pt) was under 10 µM.

On to `CC1(C)Oc2ccc(Nc3nc(Nc4ccc5[nH]c(CN6CCOCC6)nc5c4)ncc3F)nc2NC1=O` [Compound 962, N4-(2,2-Dimethyl-3-oxo-4H-5-pyrido[1,4]oxazin-6-yl)-5-fluoro-N2-[2-(4-morpholinomethyl)-1H-benzimidazol-5-yl]-2,4-pyrimidinediamine], for which, on Syk kinase (11pt), the IC50 is under 10 µM.

For `CC1(C)Oc2ccc(Nc3nc(Nc4ccc5[nH]c(N6CCOCC6)nc5c4)ncc3F)cc2NC1=O` [Compound 976, N4-(2,2-Dimethyl-3-oxo-4H-benz[1,4]oxazin-6-yl)-5-fluoro-N2-[2-(4-morpholino)-1H-benzimidazol-5-yl]-2,4-pyrimidinediamine], the IC50 on Syk kinase (11pt) was under 10 µM.

For the molecule `CC1(C)Oc2ccc(Nc3nc(Nc4ccc5[nH]c(N6CCOCC6)nc5c4)ncc3F)nc2NC1=O` [Compound 977, N4-(2,2-Dimethyl-3-oxo-4H-5-pyrido[1,4]oxazin-6-yl)-5-fluoro-N2-[2-(4-morpholino)-1H-benzimidazol-5-yl]-2,4-pyrimidinediamine], the IC50 on Syk kinase (11pt) is under 10 µM.

`COc1c(C)cc(Nc2ncc(F)c(Nc3ccc4c(n3)NC(=O)C(C)(C)O4)n2)cc1C` [Compound 997, N2-(3,5-Dimethyl-4-methoxyphenyl)-N4-(2,2-dimethyl-3-oxo-4H-5-pyrid[1,4]oxazin-6-yl)-5-fluoro-2,4-pyrimidinediamine]: at Syk kinase (11pt), the IC50 is under 10 µM.

For the molecule `COc1cc(Nc2ncc(F)c(Nc3ccc4c(n3)NC(=O)C(C)(C)O4)n2)cc(OC)c1OC` [Compound 1007, N4-(2,2-Dimethyl-3-oxo-4H-5-pyrid[1,4]oxazin-6-yl)-5-fluoro-N2-(3,4,5-trimethoxyphenyl)-2,4-pyrimidinediamine], the “Exposure = Pretreatment Time + 4 hours Plasma Concentration ± SEM” value in data set [1] (0.1 mg/kg oral) and in data set [1] (0.5 mg/kg oral) was “BLQ” in each case. The concentration at 4.5 h in data set [1] (1 mg/kg oral) came out at 2.3 ± 0.9 ng/mL; in data set [1] (5 mg/kg oral) it was 19.8 ± 15.7 ng/mL.

With `CCOc1c(C)cc(Nc2ncc(F)c(Nc3ccc4c(c3)NC(=O)C(C)(C)O4)n2)cc1Cl` [Compound 1008], the IC50 at Syk kinase (11pt) was under 10 µM.

Consider `CC1(C)Oc2ccc(Nc3nc(Nc4ccc(-c5ncco5)cc4)ncc3F)cc2NC1=O` [Compound 1011], for which the IC50 on Syk kinase (11pt) is under 10 µM.

For the molecule `CC1(C)Oc2ccc(Nc3nc(Nc4cccc(-c5cnco5)c4)ncc3F)cc2NC1=O` [Compound 1016], the IC50 on Syk kinase (11-point) was under 10 µM.

In the case of `O=C1COc2ccc(Nc3ncc(F)c(Nc4ccc5c(c4)NC(=O)CO5)n3)cc2N1` [Compound 1083], the IC50 on Syk kinase (11-point) was under 10 µM.

As to `COc1cc(Nc2ncc(F)c(Nc3ccc4c(n3)NCCO4)n2)cc(OC)c1OC` [Compound 1145, N4-(3,4-Dihydro-2H,4H-5-pyrid[1,4]oxazin-6-yl)-5-fluoro-N2-(3,4,5-trimethoxyphenyl)-2,4-pyrimidinediamine], the IC50 at Syk kinase (4 uM ATP, 11pt) is under 10 µM.

As to `COC(=O)CNC(=O)c1ccc(Nc2ncc(F)c(Nc3ccc4c(c3)NC(=O)C(C)(C)O4)n2)cc1` [Compound 1286], the IC50 in data set [2] (3pt, read-out: LD Tryptase, CHMC, IgE, 3pt) was under 10 µM; in data set [2] (8pt, read-out: LD Tryptase, CHMC, IgE, 8pt), under 10 µM; in data set [3] it was over 10 µM; at Syk kinase (4 uM ATP, 11pt), under 10 µM.

Take `COC(=O)CCNC(=O)c1ccc(Nc2ncc(F)c(Nc3ccc4c(n3)NC(=O)C(C)(C)O4)n2)cc1` [Compound 1312, N4-(2,2-Dimethyl-3-oxo-4H-5-pyrid[1,4]oxazin-6-yl)-5-fluoro-N2-[4-[N-(2-methoxycarbonylethyl)aminocarbonyl]phenyl]-2,4-pyrimidinediamine]: the IC50 at Syk kinase (4 uM ATP, 11pt) is under 10 µM.
